Results on 9 compounds are retold here after patent US20090075867A1, “Triazine compounds and compositions thereof for the treatment of cancers” (priority 2005, published 2009).

Molecules are shown by their SMILES. pIC50: −log10 of the molar value.

In assay [1] the test system is NHDF, Normal Human Dermal Fibroblast. The experiment in a line: In vitro cytotoxicity (MTT) on NHDF. The assay is classed as cell-based. As to the method: (§1) This assay was performed to determine the effect of compounds of the present invention on cell cytotoxicity. Cells were incubated in presence or absence of compounds in their respective conditioned media. […] The supernatant was discarded and 100 μl of dimethylsulfoxide (DMSO) was added. Absorbance was read at […] with an ELISA Tecan SUNRISE™ plate reader. The control group consisted of cells without compounds and is referred to as 100% of viable cells. IC50 was determined using PRISM® software.
(§2) The predictive utility of cell-based cytotoxicity assays to assess the potential in vivo anticancer activity of compounds with selected cancer cell lines is well established in the art and the use of whole cells, instead of isolated protein receptors or enzymes, provides a more reliable determination of activity. See, for example, Paull et al. J. Natl. Cancer Inst. 81:1088-1092 (1989); Monks et al. J. Natl. Cancer Inst. 83:757-766 (1991); Bandes et al. J. Natl. Cancer Inst. 86:770-775 (1994); and Kamate et al. Intl. J. Cancer 100:571-579 (2002).

In assay [2] the test system is B16F10, murine melanoma cell. In words: In vitro cytotoxicity (MTT) on B16F10. The assay is classed as cell-based. As to conditions: Mus musculus, B16-F10. On the procedure:
as §1, §2

The test system of assay [3] is P815, murine mastocytoma cell. The experiment in a line: In vitro cytotoxicity (MTT) on P815. The assay is classed as cell-based. As to conditions: Mus musculus. On the procedure:
as §1, §2

Assay [4] concerns PC-3, human prostate carcinoma cell. The experiment in a line: In vitro cytotoxicity (MTT) on PC-3. The assay is classed as cell-based. As to the method:
as §1, §2

The next assay has as its system DA-3. The experiment in a line: In vitro cytotoxicity (MTT) on DA-3. The assay is classed as cell-based, BALB/c mice. As to conditions: Mus musculus. On the procedure:
as §1, §2
The syngeneic tumor DMBA3 (DA-3, breast carcinoma model) arose from a preneoplastic lesion treated with 7,12-dimethylbenzanthracene in female BALB/c mice. DA-3 cells were grown as monolayer cultures in plastic flasks in RPMI-1640 containing 0.1 mM nonessential amino acids, 0.1 μM sodium pyruvate, 2 mM L-glutamine. This was further supplemented with 50 μM 2-mercaptoethanol and 10% fetal bovine serum. The DA-3 tumors were serially passage in vivo by intradermal inoculation of 5×10^5 viable tumor cells to produce localized tumors in 6- to 8-week old BALB/c mice. The animals were then serially monitored by manual palpation for evidence of tumor. Mice were treated at day 11, 18 and 25 with cyclophosphamide (100 mg/kg) and at day 11, 12, 13, 15, 18, 20, 22, 25, 27 and 29 with compound 1, 2, 3 or 8 (50 mg/kg). Mice were sacrificed at day 43. Serial tumor volume was obtained by bi-dimensional diameter measurements with calipers, using the formula 0.4 (a×b^2) where “a” was the major tumor diameter and “b” the minor perpendicular diameter. […] The National Cancer Institute (USA) defines the product as effective if T/C is ≦40%.

For assay [5], the system named is PBML, Peripheral Blood Mononuclear Leukocytes. The experiment in a line: In vitro cytotoxicity (MTT) on PBML. The class given is cell-based. To be noted: Leukocyte. On the procedure: as §1, §2
For a further assay, the system named is B16F10 lung metastases. The assay is classed as in vivo. To be noted: FIG. 4; used alone; compound 50 mg/kg i.v., doxorubicin 1 mg/kg. As to the method: Female 6-8-week old C57BL/6 mice were injected intravenously on day 0 with 1-2.5×10^5 B16F10 melanoma cells from ATCC (source of cell culture, Dr. I. J. Fidler). B16F10 melanoma cells are a highly metastatic cell line which preferentially forms nodules in the lungs. Cells were cultured in DMEM supplemented with 10% fetal bovine serum. […] Fourteen days after inoculation, mice were sacrificed and their lungs were removed, rinsed in PBS, and placed in Bouin's fixative. The number of metastatic nodules (black colonies) on the surface of the lungs were counted.

Regarding `Nc1cccc(Nc2nc(NCCO)nc(Nc3ccc(Nc4nc(NCCO)nc(Nc5cccc(F)c5)n4)cc3)n2)c1` [Compound 19], the negative-log IC50 (pIC50) (usually the negative decadic logarithm of the IC50, by convention in mol/L) in assay [1] (24-hour cell culture) is 4.71; in assay [2] (24-hour cell culture) it was 5.55; in assay [2] (72-hour cell culture), 5.21; in assay [3] (24-hour cell culture), 4.79; in assay [3] (72-hour cell culture), 5.07; in assay [4] (24-hour cell culture) it was 5.09. Also, the pIC50 in assay [4] (72-hour cell culture) was 5.24; in the assay on DA-3 (24-hour cell culture) it was 5.35; with DA-3 (72-hour cell culture), 4.87.
Regarding `Nc1cccc(Nc2nc(NCCO)nc(Nc3cccc(Nc4nc(NCCO)nc(Nc5cccc(N)c5)n4)c3)n2)c1` [Compound 6], the pIC50 in assay [1] (24-hour cell culture) was below 4.00; in assay [1] (72-hour cell culture) it was below 4.00; in assay [2] (24-hour cell culture), 5.59; in assay [3] (24-hour cell culture), below 4.00; in assay [3] (72-hour cell culture) it was below 4.00; in assay [4] (24-hour cell culture), 4.20. Besides, the figures for the pIC50 (in the assay on DA-3 (24-hour cell culture); in assay [5] (24-hour cell culture); in assay [5] (72-hour cell culture)) were 4.52, below 4.00 and below 4.00, respectively.
On to `COc1cccc2c1C(=O)c1c(O)c3c(c(O)c1C2=O)C[C@@](O)(C(=O)CO)C[C@@H]3O[C@H]1C[C@H](N)[C@H](O)[C@H](C)O1` [doxorubicin, reference compound], for which the “reduction of the number of tumor nodules” value in the assay on B16F10 lung metastases was found to be 90%.
In the case of `CN1CCN(c2nc(NCCc3ccc(Nc4nc(Nc5cccc(N)c5)nc(N5CCN(C)CC5)n4)cc3)nc(Nc3cccc(N)c3)n2)CC1` [Compound 18], the pIC50 is 5.96 in assay [2] (24-hour cell culture); 6.22 in assay [2] (72-hour cell culture); 5.60 in assay [3] (24-hour cell culture); 6.15 in assay [3] (72-hour cell culture); 4.91 in assay [4] (24-hour cell culture); 4.99 in assay [4] (72-hour cell culture).
With `Nc1cccc(Nc2nc(NCCNc3nc(Nc4cccc(N)c4)nc(Nc4cccc(O)c4)n3)nc(Nc3cccc(O)c3)n2)c1` [Compound 11], the negative-log IC50 (pIC50) is 5.85 in assay [2] (24-hour cell culture); 5.20 in assay [2] (72-hour cell culture); 4.67 in assay [3] (24-hour cell culture); 5.32 in assay [3] (72-hour cell culture); 5.36 in assay [4] (24-hour cell culture); 5.31 in assay [4] (72-hour cell culture).
For `Nc1cccc(CCNc2nc(Nc3ccc(CCNc4nc(NCCO)nc(Nc5cccc(N)c5)n4)cc3)nc(Nc3cccc(N)c3)n2)c1` [Compound 15], the pIC50 is 5.74 in assay [2] (24-hour cell culture); 5.54 in assay [2] (72-hour cell culture); 4.87 in assay [3] (24-hour cell culture); 5.48 in assay [3] (72-hour cell culture); 4.96 in assay [4] (24-hour cell culture); 5.37 in assay [4] (72-hour cell culture).
As to `Nc1cccc(Nc2nc(NCCO)nc(NCCc3ccc(Nc4nc(NCCc5ccccc5N)nc(Nc5cccc(N)c5)n4)cc3)n2)c1` [Compound 17], the pIC50 was 5.92 in assay [2] (24-hour cell culture); 5.44 in assay [2] (72-hour cell culture); 4.84 in assay [3] (24-hour cell culture); 5.82 in assay [3] (72-hour cell culture); 4.94 in assay [4] (24-hour cell culture); 5.40 in assay [4] (72-hour cell culture).
`Nc1cccc(Nc2nc(NCCO)nc(NCc3cccc(F)c3)n2)c1` [Compound 9]: the pIC50 is below 4.00 in assay [1] (24-hour cell culture); below 4.00 in assay [1] (72-hour cell culture); below 4.00 in assay [2] (24-hour cell culture); 4.04 in assay [2] (72-hour cell culture); below 4.00 in assay [3] (24-hour cell culture); 4.37 in assay [3] (72-hour cell culture). Besides, the pIC50 in assay [4] (24-hour cell culture), in assay [4] (72-hour cell culture), in assay [5] (24-hour cell culture) and in assay [5] (72-hour cell culture) was below 4.00 in each case.
Take `CN(C)c1nc(Nc2ccc(CCNc3nc(NCCO)nc(Nc4cccc(N)c4)n3)cc2)nc(Nc2cccc(N)c2)n1` [Compound 16]: the negative-log IC50 (pIC50) is 6.30 in assay [2] (24-hour cell culture); 5.46 in assay [2] (72-hour cell culture); 4.90 in assay [3] (24-hour cell culture); 5.62 in assay [3] (72-hour cell culture); 4.69 in assay [4] (24-hour cell culture); 5.29 in assay [4] (72-hour cell culture).
